Patent US11058680B2, “Combinations of opioid/TLR4 antagonists and acetaminophen for use in the treatment of emotional pain and insomnia” (Allodynic Threapeutics, LLC, priority 2016, dated 2021)

Assay: Migraine open-label pilot study: side effects (AEs present) at each time point
Type: in vivo, human
Procedure: The majority of the patients remained in the clinic for observation for 2 hours after dosing. […] Headache pain was assessed on a 4-point scale (0=none; 1=mild; 2=moderate; 3=severe). The assessment of photophobia, phonophobia, nausea, and neck/shoulder pain was assessed as present or absent. The assessment of emotional pain was recorded on a 4-point scale (0=none, 1=mild, 2=moderate, 3=severe). The assessment of difficulty sleeping or falling asleep (insomnia) was assessed on a 4-point scale (0=none, 1=mild, 2=moderate, 3=severe) at baseline, for the night before treatment and for the following nights at 24, and 48 hours. Patients recorded side effects severity at each time point. Patients recorded the time of the first rescue medication dose and all additional headache medications used within 48 hours. Patients were required to stay awake to record their assessments in the first 2 hours, sleeping was permitted thereafter. While asleep, assessments were completed according to patients' best estimation. For data analysis, it was assumed that a migraine attack is a unique patient. Patients were asked to specify (yes or no answer) to whether they experienced emotional pain symptoms such as: hurt feelings, sadness, fear, or anger. Patients who replied positively to having emotional pain were asked to specify the cause into one of the following options: relationship, work/school, money/debt, health, or loss/grief.

Question: What does the source list for `O=C1CC[C@@]2(O)[C@H]3Cc4ccc(O)c5c4[C@@]2(CCN3CC2CC2)[C@H]1O5` [naltrexone]?
Answer: AEs present (7 min, NTX/APAP 2.25 mg/325 mg, NTX 2.25 mg): 0 (0); AEs present (7 min, NTX/APAP 3.25 mg/325 mg, NTX 3.25 mg): 0; AEs present (7 min, NTX/APAP 5 mg/325 mg, NTX 5 mg): 1; AEs present (7 min, all doses combined): 1 (16); AEs present (15 min, NTX/APAP 2.25 mg/325 mg, NTX 2.25 mg): 1 (11); AEs present (15 min, NTX/APAP 3.25 mg/325 mg, NTX 3.25 mg): 0; AEs present (15 min, NTX/APAP 5 mg/325 mg, NTX 5 mg): 0; AEs present (15 min, NTX/APAP […]325 mg, NTX 1.5 mg): 0; AEs present (15 min, all doses combined): 2 (13); AEs present (30 min, NTX/APAP 2.25 mg/325 mg, NTX 2.25 mg): 1 (11); AEs present (30 min, NTX/APAP 3.25 mg/325 mg, NTX 3.25 mg): 2 (66); AEs present (30 min, NTX/APAP 5 mg/325 mg, NTX 5 mg): 1 (100); AEs present (30 min, NTX/APAP […]325 mg, NTX 1.5 mg): 0 (0); AEs present (30 min, all doses combined): 4 (25); AEs present (1 h, NTX/APAP 2.25 mg/325 mg, NTX 2.25 mg): 1 (11); AEs present (1 h, NTX/APAP 3.25 mg/325 mg, NTX 3.25 mg): 1; AEs present (1 h, NTX/APAP 5 mg/325 mg, NTX 5 mg): 1; AEs present (1 h, NTX/APAP […]325 mg, NTX 1.5 mg): 0; AEs present (1 h, all doses combined): 3 (19); AEs present (90 min, NTX/APAP 2.25 mg/325 mg, NTX 2.25 mg): 0 (0); AEs present (90 min, NTX/APAP 3.25 mg/325 mg, NTX 3.25 mg): 1 (33); AEs present (90 min, NTX/APAP 5 mg/325 mg, NTX 5 mg): 1 (100); AEs present (90 min, NTX/APAP […]325 mg, NTX 1.5 mg): 0 (0); AEs present (90 min, all doses combined): 2 (13); AEs present (2 h, NTX/APAP 2.25 mg/325 mg, NTX 2.25 mg): 0 (0); AEs present (2 h, NTX/APAP 3.25 mg/325 mg, NTX 3.25 mg): 1 (33); AEs present (2 h, NTX/APAP 5 mg/325 mg, NTX 5 mg): 1; AEs present (2 h, NTX/APAP […]325 mg, NTX 1.5 mg): 0 (0); AEs present (2 h, combined doses): 2 (13); AEs present (3 h, NTX/APAP 2.25 mg/325 mg, NTX 2.25 mg): 0 (0); AEs present (3 h, NTX/APAP 3.25 mg/325 mg, NTX 3.25 mg): 1 (33); AEs present (3 h, NTX/APAP 5 mg/325 mg, NTX 5 mg): 1; AEs present (3 h, NTX/APAP […]325 mg, NTX 1.5 mg): 0; AEs present (3 h, combined doses): 2 (13); AEs present (4 h, NTX/APAP 2.25 mg/325 mg, NTX 2.25 mg): 0 (0); AEs present (4 h, NTX/APAP 3.25 mg/325 mg, NTX 3.25 mg): 1 (33); AEs present (4 h, NTX/APAP 5 mg/325 mg, NTX 5 mg): 1; AEs present (4 h, NTX/APAP […]325 mg, NTX 1.5 mg): 0; AEs present (4 h, combined doses): 2 (13); AEs present (6 h, NTX/APAP 2.25 mg/325 mg, NTX 2.25 mg): 0 (0); AEs present (6 h, NTX/APAP 3.25 mg/325 mg, NTX 3.25 mg): 1 (33); AEs present (6 h, NTX/APAP 5 mg/325 mg, NTX 5 mg): 1; AEs present (6 h, NTX/APAP […]325 mg, NTX 1.5 mg): 0; AEs present (6 h, combined doses): 2 (13); AEs present (12 h, NTX/APAP 2.25 mg/325 mg, NTX 2.25 mg): 0 (0); AEs present (12 h, NTX/APAP 3.25 mg/325 mg, NTX 3.25 mg): 1 (33); AEs present (12 h, NTX/APAP 5 mg/325 mg, NTX 5 mg): 1; AEs present (12 h, NTX/APAP […]325 mg, NTX 1.5 mg): 0; AEs present (12 h, combined doses): 2 (13); AEs present (24 h, NTX/APAP 2.25 mg/325 mg, NTX 2.25 mg): 0; AEs present (24 h, NTX/APAP 3.25 mg/325 mg, NTX 3.25 mg): 1 (33); AEs present (24 h, NTX/APAP 5 mg/325 mg, NTX 5 mg): 1; AEs present (24 h, NTX/APAP […]325 mg, NTX 1.5 mg): 0; AEs present (24 h, combined doses): 2 (13); AEs present (48 h, NTX/APAP 2.25 mg/325 mg, NTX 2.25 mg): 0 (0); AEs present (48 h, NTX/APAP 3.25 mg/325 mg, NTX 3.25 mg): 1 (33); AEs present (48 h, NTX/APAP 5 mg/325 mg, NTX 5 mg): 0; AEs present (48 h, NTX/APAP […]325 mg, NTX 1.5 mg): 0; AEs present (48 h, combined doses): 1
